Data published in patent US20220378706A1, “PHARMACEUTICAL COMPOSITION COMPRISING PDE9 INHIBITOR” (Eisai R&D Management Co., Ltd., priority 2017, published 2022).

Tested on: CSF cGMP
Experiment: Multiple ascending dose study: CSF cGMP
Format: in vivo, human
Procedure: Four sequential cohorts of healthy participants (≥50 years and ≤85 years old) were treated with multiple ascending doses of Compound A up to the maximum tolerated dose (MTD). A total of 6 participants per cohort were randomized to Compound A. Proposed doses of Compound A were:
Compound A was administered orally with 240 milliliter (mL) (8 fluid ounces) of water. […]

[1] = Day 13, 5 mg QD oral, Parts A and D
[2] = Day 13, 10 mg QD oral, Parts A and D
[3] = Day 13, 25 mg QD oral, Parts A and D
[4] = Day 13, 50 mg QD oral, Parts A and D
[5] = Day 13, 100 mg QD oral, Parts A and D
[6] = Day 13, 200 mg QD oral, Parts A and D
[7] = Day 13, 400 mg QD oral Non-Japanese, Parts A and D

COc1ncc(C)c(-c2ccc3c(c2)[nH]c(=O)c2cnn([C@H]4CCOC4)c23)c1C [Compound A, (S)-7-(2-methoxy-3,5-dimethylpyridin-4-yl)-1-(tetrahydrofuran-3-yl)-1H-pyrazolo[4,3-c]quin olin-4(5H)-one]
CSF cGMP % Change from Baseline Mean [1]: 33.162% | CSF cGMP % Change from Baseline Median [1]: 29.954% | CSF cGMP Change from Baseline Mean [1]: 0.491 µg/L | CSF cGMP Change from Baseline Median [1]: 0.350 µg/L | CSF cGMP Mean [1]: 1.964 µg/L | CSF cGMP Median [1]: 1.730 µg/L | CSF cGMP % Change from Baseline Mean [2]: 94.222% | CSF cGMP % Change from Baseline Median [2]: 104.348% | CSF cGMP Change from Baseline Mean [2]: 1.276 µg/L | CSF cGMP Change from Baseline Median [2]: 1.390 µg/L | CSF cGMP Mean [2]: 2.704 µg/L | CSF cGMP Median [2]: 2.620 µg/L | CSF cGMP % Change from Baseline Mean [3]: 170.369% | CSF cGMP % Change from Baseline Median [3]: 183.494% | CSF cGMP Change from Baseline Mean [3]: 2.058 µg/L | CSF cGMP Change from Baseline Median [3]: 1.979 µg/L | CSF cGMP Mean [3]: 3.283 µg/L | CSF cGMP Median [3]: 3.225 µg/L | CSF cGMP % Change from Baseline Mean [4]: 191.445% | CSF cGMP % Change from Baseline Median [4]: 189.244% | CSF cGMP Change from Baseline Mean [4]: 3.750 µg/L | CSF cGMP Change from Baseline Median [4]: 3.260 µg/L | CSF cGMP Mean [4]: 5.778 µg/L | CSF cGMP Median [4]: 4.870 µg/L | CSF cGMP % Change from Baseline Mean [5]: 260.350% | CSF cGMP % Change from Baseline Median [5]: 258.784% | CSF cGMP Change from Baseline Mean [5]: 4.352 µg/L | CSF cGMP Change from Baseline Median [5]: 3.960 µg/L | CSF cGMP Mean [5]: 6.066 µg/L | CSF cGMP Median [5]: 5.420 µg/L | CSF cGMP % Change from Baseline Mean [6]: 201.165% | CSF cGMP % Change from Baseline Median [6]: 192.932% | CSF cGMP Change from Baseline Mean [6]: 3.810 µg/L | CSF cGMP Change from Baseline Median [6]: 3.755 µg/L | CSF cGMP Mean [6]: 5.702 µg/L | CSF cGMP Median [6]: 5.640 µg/L | CSF cGMP % Change from Baseline Mean [7]: 198.283% | CSF cGMP % Change from Baseline Median [7]: 191.646% | CSF cGMP Change from Baseline Mean [7]: 3.302 µg/L | CSF cGMP Change from Baseline Median [7]: 2.920 µg/L | CSF cGMP Mean [7]: 4.945 µg/L | CSF cGMP Median [7]: 4.370 µg/L | CSF cGMP % Change from Baseline Mean (Part C, 50 mg, Day 13): 229.107% | CSF cGMP % Change from Baseline Median (Part C, 50 mg, Day 13): 218.491% | CSF cGMP Change from Baseline Mean (Part C, 50 mg, Day 13): 3.206 µg/L | CSF cGMP Change from Baseline Median (Part C, 50 mg, Day 13): 3.065 µg/L | CSF cGMP Mean (Part C, 50 mg, Day 13): 4.620 µg/L | CSF cGMP Median (Part C, 50 mg, Day 13): 4.265 µg/L | CSF cGMP % Change from Baseline Mean (Part C, 50 mg, Day 41): 222.283% | CSF cGMP % Change from Baseline Median (Part C, 50 mg, Day 41): 182.044% | CSF cGMP Change from Baseline Mean (Part C, 50 mg, Day 41): 3.097 µg/L | CSF cGMP Change from Baseline Median (Part C, 50 mg, Day 41): 2.975 µg/L | CSF cGMP Mean (Part C, 50 mg, Day 41): 4.511 µg/L | CSF cGMP Median (Part C, 50 mg, Day 41): 4.650 µg/L
